Experimental data: US20250059203A1, “USE OF ARISTOLOXAZINE C HAVING ANTICANCER ACTIVITY” (KOREA INSTITUTE OF ORIENTAL MEDICINE, priority 2021, published 2025)

Columns and labels:
SKMEL5 (melanoma) = assay: MTT assay, SKMEL5 cells; assay type: cell-based, human
Protocol: (§1) In order to evaluate the anticancer activity of aristoloxazine isolated in Example 1, the cytotoxic activity against 14 human cancer cell lines including SKMEL5 (melanoma), A431 (non-melanoma skin), PC3 (prostate), A549 (lung), HT1080 (fibrosarcoma), OVCAR3 (ovary), HCT116 (colon), AGS (stomach), HepG2 (liver), MCF7 (breast cancer), K562 (leukemia), U-87 (glioma), ACHN (renal adenocarcinoma) and Caki (clear cell kidney cancer) was evaluated.
(§2) Cells were seeded (1 to 2.5×10^3 cells per well) in 96-well plates and then allowed to settle overnight. Next, the cells were treated with different doses of the compound for 24 hours, 48 hours or 72 hours in a 37° C. CO2 incubator, and 20 μL of MTT ((4,5-dimethylthiazol-2-yl)-2,5-diphenyltetrazolium bromide reagent (Sigma-Aldrich, Inc., St. Louis, MO, USA) was added to each well. After 1 to 2 hours, the medium was discarded, and 100 μL of DMSO (dimethyl sulfoxide, VWR Life Science, Ohio, USA) was added, and then, absorbance was measured at 570 nm by using a Multiskan Skyhigh microplate spectrophotometer (Thermo Scientific, Singapore). 5-FU was used as a positive control. The extract in Table 2 was a 70% ethanol Asarum heterotropoides root extract obtained in the process of preparing the Asarum heterotropoides root fraction of Example 1-2.

[1] = tested on: A431 (non-melanoma skin cancer); assay: MTT assay, A431 cells; assay type: cell-based, human
Protocol: as §1, §2

PC3 (prostate cancer) = assay: MTT assay, PC3 cells; assay type: cell-based; conditions: Homo sapiens, PC-3, PC3, 72 h
Protocol: as §1, §2

A549 (lung cancer) = assay: MTT assay, A549 cells; assay type: cell-based, human; conditions: A549, 72 h
Protocol: as §1, §2

HT1080 (fibrosarcoma) = assay: MTT assay, HT1080 cells; assay type: cell-based, human
Protocol: as §1, §2

OVCAR3 (ovarian cancer) = assay: MTT assay, OVCAR3 cells; assay type: cell-based; conditions: Homo sapiens, OVCAR-3, OVCAR3, 72 h
Protocol: as §1, §2

HCT116 (colon cancer) = assay: MTT assay, HCT116 cells; assay type: cell-based, human
Protocol: as §1, §2

AGS (stomach cancer) = assay: MTT assay, AGS cells; assay type: cell-based, human; conditions: 72 h
Protocol: as §1, §2

HepG2 (liver cancer) = assay: MTT assay, HepG2 cells; assay type: cell-based; conditions: Homo sapiens, HepG2, 72 h
Protocol: as §1, §2

MCF7 (breast cancer) = assay: MTT assay, MCF7 cells; assay type: cell-based; conditions: Homo sapiens, MCF7, 72 h
Protocol: as §1, §2

K562 (leukemia) = assay: MTT assay, K562 cells; assay type: cell-based, human; conditions: K562, 72 h
Protocol: as §1, §2

U-87 (glioma) = assay: MTT assay, U-87 cells; assay type: cell-based, human; conditions: U-87, 72 h
Protocol: as §1, §2

[2] = tested on: ACHN (renal adenocarcinoma); assay: MTT assay, ACHN cells; assay type: cell-based, human; conditions: 72 h
Protocol: as §1, §2

[3] = tested on: Caki (clear cell kidney cancer); assay: MTT assay, Caki cells; assay type: cell-based, human; conditions: 72 h
Protocol: as §1, §2

[4] = tested on: 14 human cancer cell lines; assay: MTT assay, panel of all cancer cell lines tested; assay type: cell-based; conditions: span over all cancer cell lines tested, read-out: IC50 values, cytotoxicity against all cells that were tested
Protocol: as §1, §2

`COc1cccc2c1[C@H](SCC(N)=O)c1noc(=O)c3cc4c(c-2c13)OCO4` [Aristoloxazine C] gave an IC50 (SKMEL5 (melanoma); Homo sapiens, SK-MEL-5, SKMEL5, 72 h) of 72.1 ± 0.4 nM, an IC50 ([1]; Homo sapiens, A-431, A431, 72 h) of 85.7 ± 2.5 nM and an IC50 (PC3 (prostate cancer)) of 84.3 ± 2 nM. It also gave an IC50 (A549 (lung cancer); Homo sapiens) of 25.7 ± 0.7 nM, an IC50 (HT1080 (fibrosarcoma); Homo sapiens, HT-1080, HT1080, 72 h) of 143 ± 2.3 nM and an IC50 (OVCAR3 (ovarian cancer)) of 374 ± 12 nM. It also gave an IC50 (HCT116 (colon cancer); Homo sapiens, HCT-116, HCT116, 72 h) of 29.3 ± 0.2 nM, an IC50 (AGS (stomach cancer); Homo sapiens) of 22.1 ± 0.8 nM and an IC50 (HepG2 (liver cancer)) of 149.2 ± 0.7 nM. The IC50 (MCF7 (breast cancer)) was 46.4 ± 2 nM, the IC50 (K562 (leukemia); Homo sapiens) was 78.6 ± 2 nM and the IC50 (U-87 (glioma); Homo sapiens, U-87 MG) was 57.8 ± 5.5 nM. It also gave an IC50 ([2]; Homo sapiens) of 17.8 ± 0.1 nM, an IC50 ([3]; Homo sapiens) of 65.4 ± 2.9 nM and an IC50 [4] of 17.8 to 374 nM.
For `O=c1[nH]cc(F)c(=O)[nH]1` [Compound 5-FU, 5-FU, reference compound], the IC50 (SKMEL5 (melanoma); SKMEL5, 72 h) was 8400 ± 700 nM, the IC50 ([1]; A431, 72 h) was 1000 ± 30 nM and the IC50 (A549 (lung cancer)) was 2400 ± 100 nM. The IC50 (HT1080 (fibrosarcoma); HT1080, 72 h) was 4900 ± 100 nM, the IC50 (HCT116 (colon cancer); HCT116, 72 h) was 3500 ± 100 nM and the IC50 (AGS (stomach cancer)) was 3200 ± 100 nM. For the same compound, the IC50 (K562 (leukemia)) was 6700 ± 200 nM, the IC50 (U-87 (glioma)) was 9000 ± 200 nM and the IC50 [2] was 9100 ± 2900 nM. For the same compound, the IC50 [3] was 9900 ± 200 nM.
